As a reminder, the MIC is the lowest concentration found to suppress growth.

In brackets after ≈: the same amount, converted by molar mass. A value given as a limit tells only on which side of the number the result lay.

One assay has as its system Mycobacterium immunogenum MWF isolates. Nature of the assay: Anti-mycobacterial activity in MWF, plating on Mycoagar. The assay is classed as cell-based. As to conditions: MCC added to a MWF 24 hours after the isothiazolones had been added. The protocol: The MWFs selected were fluids which had evidence of CMIT incompatibility. The MCC was added to the MWFs 24 hours before the CMIT was added; 24 hours after the CMIT was added; or in a mixture with the CMIT. This was done for each concentration of CMIT (7.5 and 15 ppm) and MCC (250 and 500 ppm). Controls consisted of no biocide and CMIT at 7.5 and 15 ppm. Stability of the isothiazolones was evaluated at time 0 and then after 24 and 48 hours by standard methods for detecting isothiazones. Plating for mycobacteria kill was performed with aliquots from time 0 and 48 hours.
Plating was performed on 100 mm petri dishes containing 20 mL of an appropriate agar. Two different formulations, both based on Plate Count Agar (standard methods for waste and waste water). The medium for recovery of Mycobacterium immunogenum is nutritionally supplemented with TWEEN 80 and glycerin and has three antibiotics (cyclohexamide, chloramphenicol, and gentimicin) to inhibit fungi and unwanted bacteria. This medium with agar is referred to herein as “Mycoagar.”
The MWFs selected were fluids which had evidence of CMIT incompatibility. The MCC was added to the MWFs 24 hours before the CMIT was added at 15 ppm. Stability was evaluated at time 0 and then after 24 and 48 hours by chemical analysis. Plating for mycobacteria kill was performed with aliquots from time O and after 48 hours.
In the case of `O=C([O-])CC(O)(CC(=O)[O-])C(=O)O.[Cu+2]` [MCC, disodium monocopper (II) citrate], the “suppressing growth of the Mycobacterium immunogenum genotype” value is “ineffective”.

Another assay relates to Mycobacterium immunogenum isolate.
Assay: not given
To be noted: Mycobacterium immunogenum isolate from MWF (ATCC 700506); cited from earlier work.
On to `C[C@H]1c2cccc(O)c2C(=O)C2=C(O)[C@]3(O)C(=O)C(C(N)=O)=C(O)[C@@H](N(C)C)[C@@H]3[C@@H](O)[C@@H]21` [doxyxycline], for which the MIC is above 128 µg/mL.

Regarding `Cc1cc(NS(=O)(=O)c2ccc(N)cc2)no1` [sulfamethoxazole], the minimum inhibitory concentration (MIC) was above 64 µg/mL.

For the molecule `CO[C@@]1(NC(=O)CSCC#N)C(=O)N2C(C(=O)O)=C(CSc3nnnn3C)CS[C@@H]21` [cefinetazole], the minimum inhibitory concentration (MIC) is 64 µg/mL (≈ 136 µM).

Regarding `CO[C@@]1(NC(=O)Cc2cccs2)C(=O)N2C(C(=O)O)=C(COC(N)=O)CS[C@@H]21` [cefoxitin], the MIC was 64 µg/mL (≈ 150 µM).

For the molecule `NCC[C@H](O)C(=O)N[C@@H]1C[C@H](N)[C@@H](O[C@H]2O[C@H](CN)[C@@H](O)[C@H](O)[C@H]2O)[C@H](O)[C@H]1O[C@H]1O[C@H](CO)[C@@H](O)[C@H](N)[C@H]1O` [amikacin], the minimum inhibitory concentration (MIC) is 128 µg/mL (≈ 219 µM).

The values above are taken from US7147824B2, “Method for suppressing growth of mycobacteria in metalworking fluids” (priority 2003, dated 2006).
